# Measured values as given in paper PMC8524856 (Biochemistry, 2021).
# Key:
# [1] = test system: HS19.10; conditions: 2.0 mM L-glutamate, 250 μM PLP, 50 mM HEPES/K+, pH 8.0, 25 °C; DHAP varied
# [2] = test system: N[C@@H](COP(=O)(O)O)C(=O)O; experiment: purified protein; conditions: 100 mM HEPES/K+, pH 8.0, 25 °C, 250 μM PLP
Molecule,Km [1] [µM],kcat [2] [s⁻¹]
O=C(CO)COP(=O)(O)O [DHAP],41 ± 2,–
Cj1436 (Campylobacter jejuni subsp. jejuni NCTC 11168 = ATCC 700819),–,0.21 ± 0.02
